Source: patent US11491245B2, “Gadolinium chelate compounds for use in magnetic resonance imaging” (BAYER PHARMA AKTIENGESELLSCHAFT, priority 2015, dated 2022)
Where two headings read alike, the source gives them in different places.

Key:
[1] = 37° C., cited from earlier work; for r1 FBS: bovine plasma
[2] = Water solubility; assay type: physicochemical; details: 10 mM Tris-HCl buffer, 20° C.
Description: The water solubility of the compounds was determined at room temperature (20° C.) in 0.5 mL buffer solution (10 mM Tris-HCl) in the microcentrifuge tubes (Eppendorf, 2.0 mL safe-lock caps). The solid compound was added stepwise to the buffer solution. The suspension was mixed using a shaker (Heidolph Reax 2000) and treated 5 min in an ultrasound bath (Bandelin, Sonorex Super RK255H) The suspension was stored at room temperature (20° C.) over night and final Gadolinium concentration was determined by inductively coupled plasma mass spectrometry (ICP-MS).

[3] = Relaxivity measurements at 1.41 T; assay type: physicochemical; details: 1.41 T, 37° C., normalized to Gd; for r1 FBS: fetal bovine serum
Description: Relaxivity measurements at 1.41 T were performed using a MiniSpec mq60 spectrometer (Bruker Analytik, Karlsruhe, Germany) operating at a resonance frequency of 60 MHz and a temperature of 37° C. The T1 relaxation times were determined using the standard inversion recovery (IR) method with a fixed relaxation delay of at least 5×T1. The variable inversion time (TI) was calculated automatically by the standard software of the MiniSpec mq60 (8 steps). The T2 measurements were done by using a Carr-Purcell-Meiboom-Gill (CPMG) pulse sequence, applying a relaxation delay of at least 5×T1.
Each relaxivity measurement was performed using three different Gd concentrations (3 concentrations between 0.05 and 2 mM). The T1 and T2 relaxation times of the example compounds 1-10 were measured in different media for example in water, fetal bovine serum (FBS, Sigma, F7524) and human plasma.
(§1) Human plasma preparation: For each experiment fresh blood was taken from a volunteer using 10 mL citrate-tubes (Sarstedt S-Monovette 02.1067.001, 10 mL, Citrate). The 10 mL citrate-tubes were carefully inverted 10 times to mix blood and anticoagulant and centrifuged for 15 minutes at 1811 g at room temperature (Eppendorf, Centrifuge 5810R).
The relaxivities ri (where i=1, 2) were calculated on the basis of the measured relaxation rates Ri in water and plasma: Ri=Ri(0)+ri[CGd], where Ri(0) represent the relaxation rate of the respective solvent and CGd the concentration of the compound normalized to the Gadolinium. The Gadolinium concentrations of the investigated solutions were verified by Inductively Coupled Plasma Mass Spectroscopy (ICP-MS Agilent 7500a, Waldbronn, Germany).

[4] = Relaxivity measurements at 3.0 T; assay type: physicochemical; details: 37° C., normalized to Gd, average ± standard deviation
Description: Relaxivity measurements at 3.0 T were performed with a whole body 3.0 T MRI Scanner (Philips Intera, Philips Healthcare, Hamburg, Germany) using a knee-coil (SENSE-Knee-8, Philips Healthcare, Hamburg, Germany). The sample tubes (CryoTubetm Vials, Thermo Scientific 1.8 mL, Roskilde, Denmark) were positioned in 3 rows of 4 and 5 tubes in a plastic holder in a box filled with water. The temperature was adjusted to 37° C. For the MRI sequence, the shortest possible echo-time (TE) with 7.46 milliseconds was used. The inversion times were chosen to optimize the sequence to measure T1 values corresponding to the estimated T1 range of all relaxation times of contrast media containing solutions. The following inversion times (TIs) were applied: 50, 100, 150, 200, 300, 500, 700, 1000, 1400, 2100, 3200, and 4500 milliseconds. The sequence was run with a constant relaxation delay of 3.4 seconds after the registration of the last echo (variable TR in the range from 3450 to 7900 milliseconds). For details of the fit procedure, see Rohrer et. al. (Invest. Radiol. 2005; 40, 11: 715-724). The experimental matrix of the phantom measurement was 320×320.
The relaxivities were evaluated using three different concentrations of each compound (3 concentrations between 0.05 and 2 mM).
as §1, with “The T1 relaxation times of the Example compounds 1-6 were measured in water and human plasma. Human” for “Human”
The relaxivities ri (where i=1, 2) were calculated on the basis of the measured relaxation rates Ri in water and plasma: Ri=Ri(0)+ri[CGd], where Ri(0) represent the relaxation rate of the respective solvent and CGd the concentration of the compound normalized to the Gadolinium (Table 2).

[5] = reference compounds (marked ^), 3.0 T, average ± standard deviation
[6] = reference compounds, 1.5 T, from Rohrer et al.

Compound | r1 human plasma [1, 5] [L/mmol/s] | r1 water [1, 5] [L/mmol/s] | r1 FBS [1, 6] [L/mmol/s] | r1 water [1, 6] [L/mmol/s] | Solubility [2] [mmol Gd/L] | r1 FBS [3] [L/mmol/s] | r1 water [3] [L/mmol/s] | r1 human plasma [3] [L/mmol/s] | r1 human plasma [4] [L/mmol/s] | r1 water [4] [L/mmol/s]
CNC[C@H](O)[C@@H](O)[C@H](O)[C@H](O)CO.CNC[C@H](O)[C@@H](O)[C@H](O)[C@H](O)CO.O=C([O-])CN(CCN(CC(=O)[O-])CC(=O)O)CCN(CC(=O)[O-])CC(=O)O.[Gd+3] [Reference compound 2, gadopentetate dimeglumine] | 3.7 ± 0.2 | 3.1 ± 0.3 | 4.1 | 3.3 |  |  |  |  |  | 
Gadomer-17 [Reference compound 4] | 13 ± 1 | 13.0 ± 0.7 | 16 | 17.3 |  |  |  |  |  | 
Tetragadolinium 2,2′,2″,2′″,2″″,2′″″,2″″″,2′″″″,2″″″″,2′″″″″,2″″″″″,2′″″″″″-(3,7,9-triazabicyclo[3.3.1]nonane-3,7-diylbis{carbonyl-1,4-diazepane-6,1,4-triylbis[(2-oxoethane-2,1-diyl)-1,4,7,10-tetraazacyclododecane-10,1,4,7-tetrayl]})dodecaacetate [Example 9] |  |  |  |  | >800 | 8.8 | 7.4 |  |  | 
CC(C(=O)NCC(=O)N1CCN(C(=O)CNC(=O)C(C)N2CCN(CC(=O)[O-])CCN(CC(=O)[O-])CCN(CC(=O)[O-])CC2)CCN(C(=O)CNC(=O)C(C)N2CCN(CC(=O)[O-])CCN(CC(=O)[O-])CCN(CC(=O)[O-])CC2)CCN(C(=O)CNC(=O)C(C)N2CCN(CC(=O)[O-])CCN(CC(=O)[O-])CCN(CC(=O)[O-])CC2)CC1)N1CCN(CC(=O)[O-])CCN(CC(=O)[O-])CCN(CC(=O)[O-])CC1.[Gd+3].[Gd+3].[Gd+3].[Gd+3] (centres unmarked) [Example 7, Tetragadolinium 2,2′,2″,2′″,2″″,2′″″,2″″″,2′″″″,2″″″″,2′″″″″,2″″″″″,2′″″″″″-{1,4,7,10-tetra-azacyclododecane-1,4,7,10-tetrayltetrakis[(2-oxoethane-2,1-diyl)imino(1-oxopropane-1,2-diyl)-1,4,7,10-tetraazacyclododecane-10,1,4,7-tetrayl]}dodecaacetate] |  |  |  |  | >1400 | 11.7 | 10.8 | 12.1 |  | 
CCOc1ccc(CC(CN(CCN(CC(=O)[O-])CC(=O)[O-])CC(=O)[O-])N(CC(=O)[O-])CC(=O)[O-])cc1.[Gd+3].[Na+].[Na+] (centres unmarked) [Reference compound 3, gadoxetate disodium] | 6.2 ± 0.3 | 4.3 ± 0.3 | 6.9 | 4.7 |  |  |  |  |  | 
O=C([O-])CN1CCN(CC(=O)[O-])CCN(CC(=O)NCC(CNC(=O)CN2CCN(CC(=O)[O-])CCN(CC(=O)[O-])CCN(CC(=O)[O-])CC2)(CNC(=O)CN2CCN(CC(=O)[O-])CCN(CC(=O)[O-])CCN(CC(=O)[O-])CC2)CNC(=O)CN2CCN(CC(=O)[O-])CCN(CC(=O)[O-])CCN(CC(=O)[O-])CC2)CCN(CC(=O)[O-])CC1.[Gd+3].[Gd+3].[Gd+3].[Gd+3] [Example 10, Tetragadolinium {4,10-bis(carboxylatomethyl)-7-[2-oxo-2-({3-({[4,7,10-tris(carboxylato-methyl)-1,4,7,10-tetraazacyclododecan-1-yl]acetyl}amino)-2,2-bis[({[4,7,10-tris-(carboxylatomethyl)-1,4,7,10-tetraazacyclododecan-1-yl]acetyl}amino)methyl]propyl}-amino)ethyl]-1,4,7,10-tetraazacyclododecan-1-yl}acetate] |  |  |  |  | >800 | 9.2 | 7.3 | 9.7 |  | 
C[C@H](C(=O)NCC(=O)NCC(CNC(=O)CNC(=O)[C@@H](C)N1CCN(CC(=O)[O-])CCN(CC(=O)[O-])CCN(CC(=O)[O-])CC1)(CNC(=O)CNC(=O)[C@@H](C)N1CCN(CC(=O)[O-])CCN(CC(=O)[O-])CCN(CC(=O)[O-])CC1)CNC(=O)CNC(=O)[C@@H](C)N1CCN(CC(=O)[O-])CCN(CC(=O)[O-])CCN(CC(=O)[O-])CC1)N1CCN(CC(=O)[O-])CCN(CC(=O)[O-])CCN(CC(=O)[O-])CC1.[Gd+3].[Gd+3].[Gd+3].[Gd+3] [Example 3-1, Tetragadolinium {4,10-bis(carboxylatomethyl)-7-[(2R,16R)-3,6,12,15-tetraoxo-16-[4,7,10-tris(carboxylatomethyl)-1,4,7,10-tetraazacyclododecan-1-yl]-9,9-bis({[({(2R)-2-[4,7,10-tris(carboxylatomethyl)-1,4,7,10-tetraazacyclododecan-1-yl]propanoyl}amino)-acetyl]amino}methyl)-4,7,11,14-tetraazaheptadecan-2-yl]-1,4,7,10-tetraazacyclo-dodecan-1-yl}acetate] |  |  |  |  |  |  | 9.5 | 10.4 | 10.1 ± 0.1 | 8.9 ± 0.2
C[C@@H](C(=O)NCC(=O)NCC(CNC(=O)CNC(=O)[C@H](C)N1CCN(CC(=O)[O-])CCN(CC(=O)[O-])CCN(CC(=O)[O-])CC1)(CNC(=O)CNC(=O)[C@H](C)N1CCN(CC(=O)[O-])CCN(CC(=O)[O-])CCN(CC(=O)[O-])CC1)CNC(=O)CNC(=O)[C@H](C)N1CCN(CC(=O)[O-])CCN(CC(=O)[O-])CCN(CC(=O)[O-])CC1)N1CCN(CC(=O)[O-])CCN(CC(=O)[O-])CCN(CC(=O)[O-])CC1.[Gd+3].[Gd+3].[Gd+3].[Gd+3] [Example 3-2, Tetragadolinium {4,10-bis(carboxylatomethyl)-7-[(2S,16S)-3,6,12,15-tetraoxo-16-[4,7,10-tris(carboxylatomethyl)-1,4,7,10-tetraazacyclododecan-1-yl]-9,9-bis({[({(2S)-2-[4,7,10-tris(carboxylatomethyl)-1,4,7,10-tetraazacyclododecan-1-yl]propanoyl}amino)acetyl]-amino}methyl)-4,7,11,14-tetraazaheptadecan-2-yl]-1,4,7,10-tetraazacyclododecan-1-yl}-acetate] |  |  |  |  |  |  | 9.4 | 11.4 | 11.4 ± 0.2 | 9.0 ± 0.4
Hexagadolinium 2,2′,2″,2′″,2″″,2′″″,2″″″,2′″″″,2″″″″,2′″″″″,2″″″″″,2′″″″″″,2″″″″″″, 2′″″″″″″,2″″″″″″″, 2′″″″″″″″,2″″″″″″″″,2′″″″″″″″″-{3,7,10-triazatricyclo[3.3.3.0^1,5]undecane-3,7,10-triyltris[carbonyl(3,6,11,14-tetraoxo-4,7,10,13-tetraazahexadecane-8,2,15-triyl)di-1,4,7,10-tetraazacyclododecane-10,1,4,7-tetrayl]}octadecaacetate [Example 8] |  |  |  |  | >1000 | 14.5 | 12.5 | 14.6 |  | 
